Common to all, as to assay type: cell-based, human
One assay has as its system BNIP3L/Nix. Nature of the assay: Immunofluorescence staining for mitophagy receptor BNIP3L/Nix. Particulars: U87-MG, 24 h; 2 μM Y102, 100 μM CoCl2; CoCl2 and Y102 compared with each other. On the procedure:
(§1) U87-MG cells were plated at a concentration of 50,000 cells/well onto precoated poly-D-lysine (PDL) coverslips (Neuvitro) in 24-well plates (Falcon) and allowed to adhere overnight. Medium was removed and replaced with treatment-laced media normalized to DMSO, and cells were treated for the indicated timepoints. At the time of collection, cells were washed with PBS and fixed with 4% paraformaldehyde without methanol (EMS) or 100% methanol (Fischer). Coverslips were washed with Tween20-containing PBS (PBST; Fischer). Following permeabilization with 0.5% Triton X-100 in PBS (Fischer), coverslips were blocked for 1 h at room temperature in IF Buffer (0.05% azide, 0.2% Triton X-100, 2% Normal Goat Serum or, for 8-OHG, Normal Donkey Serum). The following primary antibodies were used for 1 hour at room temperature unless specified: AlexaFluor 488 pre-conjugated anti-γ-H2AX (N1-431) mouse monoclonal (30 minutes; BD Biosciences), anti-cleaved caspase 3 (Asp175) rabbit polyclonal (Cell Signaling), anti-SQSTM1/p62 (D-3) mouse monoclonal (Santa Cruz), anti-8-Hydroxyguanosine goat polyclonal (1:200; Millipore), anti-LAMP1 (D4O1S) mouse monoclonal (O/N at 4° C.; Cell Signaling), anti-BNIP3L/Nix (D4R4B) rabbit monoclonal (O/N at 4° C.; Cell Signaling), anti-FLAG (M2) mouse monoclonal (2 hours at 37° C.; Sigma-Aldrich). […]

In another assay the test system is sequestosome-1 (p62). Nature of the assay: Immunofluorescence staining for p62. Particulars: U87-MG, 24 h; 2 μM Y102, 50 μM HCQ; HCQ and Y102 compared with each other. On the procedure: as §1
The test system of a further assay is p62. Nature of the assay: Western immunoblotting of autophagy marker p62. Conditions: U87-MG, 12 h treatment +/- 12 h HCQ. The protocol: (§2) U87-MG cells were plated at 500,000 cells/well in 6-well plates and allowed to adhere overnight (Falcon). Medium was removed and replaced with fresh medium containing drugs or compounds for the indicated timepoints. Cells were collected after treatment by washing with PBS, harvested with trypsin plus agitation to detach cells, pelleted in a centrifuge and resuspended in PBS to wash. Cells were transferred to 1.5 mL microcentrifuge tubes, pelleted, and resuspended in RIPA lysis buffer (50 mM Tris pH 8.0, 150 mM NaCl, 1% nonidet P40, 0.5% sodium deoxycholate, and 0.05% SDS) containing 1 mM NaVO4, 1 mM NaF, 1 mM phenylmethylsulfonyl fluoride, 0.1 μg/mL antipain, 1 μM aprotinin, 100 μM benzamidine HCl, 0.1 μg/mL leupeptin, 0.1 μg/mL pepstatin, and 0.1 μg/mL soybean trypsin inhibitor. Protein was quantified using a BCA assay kit (Pierce). 50 μg of protein was prepared in 1× Laemmli sample buffer (50 mM Tris pH 6.8, 0.02% w/v bromophenol blue, 2% w/v SDS, 10% v/v glycerol, 1% v/v beta-mercaptoethanol, 12.5 mM EDTA) and separated by SDS-PAGE on a 4-15% polyacrylamide gradient gel (Bio-Rad). […]

Another assay has as its system LC3-II. Nature of the assay: Western immunoblotting of autophagy marker LC3-I/II. Particulars: U87-MG, 12 h treatment +/- 12 h HCQ co-treatment, total 24 h. The protocol: as §2
In general terms: Immunoblotting shows a protein as a band on a membrane.

A further assay relates to mitochondria. The experiment in a line: MitoTracker Red CMXRos staining of the mitochondrial network. Particulars: U87-MG, 24 h; 2 μM Y102, 50 μM HCQ. The protocol: For MitoTracker Red CMXRos staining, 30 minutes prior to collection medium was removed and replaced with medium containing MitoTracker Red CMXRos at a final concentration of 100 nM (Molecular Probes). Following staining, cells were washed with PBS and fixed with 4% paraformaldehyde without methanol. Cells were washed with PBST, then permeabilized with 0.5% Triton X-100 in PBS. When co-staining with another marker, the staining procedure continued with the blocking step; otherwise, cells were stained with 0.33 μg/mL DAPI in PBS and mounted onto slides in ProLong Gold (Life Technologies).

Where a name gives a salt, the structure may show the parent alone.

For the molecule `[Cl-].[Cl-].[Co+2]` [CoCl2, Cobalt (II) Chloride, reference compound], the “expression/localization of BNIP3L/Nix on the mitochondria compared to DMSO control” value in the assay with BNIP3L/Nix is given as “similar”.
On to `CCN(CCO)CCCC(C)Nc1ccnc2cc(Cl)ccc12` (centres unmarked) [HCQ, Hydroxychloroquine Sulfate, reference compound], for which the “p62 expression compared to DMSO (immunofluorescence)” value in the assay on sequestosome-1 (p62) is reported as “similar”. Also, the “p62 expression (western immunoblotting)” value in the assay with p62 was “increased”. Further, the “LC3-II accumulation (western immunoblotting)” value in the assay on LC3-II is listed as “resulted in LC3-II accumulation”. For the same molecule, the “mitochondrial phenotype (perinuclear clustering)” value in the assay on mitochondria was “not observed”.

The values above are taken from patent publication US20220326218A1, “COMPOSITION AND METHOD FOR INHIBITING BORC COMPLEX TO TREAT CANCERS WITH NF1 DEFICIENCY AND DYSREGULATED RAS SIGNALING” (THE TRUSTEES OF DARTMOUTH COLLEGE, priority 2019, published 2022).
